Measured values from ChEMBL document CHEMBL1138643, “Haloperidol: towards further understanding of the structural contributions of its pharmacophoric elements at D2-like receptors” (Bioorg Med Chem Lett, 2004).
pKi: −log10 of the molar value.

What was measured:
[1] = Binding affinity for dopamine D2 receptor to that of dopamine D4 receptor
[2] = Binding affinity for dopamine D3 receptor
D(4) dopamine receptor = target: T1, D(4) dopamine receptor (Homo sapiens, UniProt P21917); experiment: Binding affinity for dopamine D4 receptor
T1 sequence (P21917 whole entry): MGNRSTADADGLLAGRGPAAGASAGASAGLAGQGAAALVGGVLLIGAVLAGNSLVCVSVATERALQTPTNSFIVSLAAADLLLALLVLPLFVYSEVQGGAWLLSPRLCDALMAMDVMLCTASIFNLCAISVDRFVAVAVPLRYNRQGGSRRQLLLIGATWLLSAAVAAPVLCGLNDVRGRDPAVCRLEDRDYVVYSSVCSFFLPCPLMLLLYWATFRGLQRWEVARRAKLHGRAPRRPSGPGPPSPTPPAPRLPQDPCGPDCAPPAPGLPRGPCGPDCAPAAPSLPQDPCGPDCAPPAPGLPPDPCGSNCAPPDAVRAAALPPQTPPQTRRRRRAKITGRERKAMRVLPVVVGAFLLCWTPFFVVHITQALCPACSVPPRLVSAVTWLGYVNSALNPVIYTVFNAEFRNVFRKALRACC

D(2) dopamine receptor = D(2) dopamine receptor (Homo sapiens, UniProt P14416)
Sequence of D(2) dopamine receptor (P14416 whole entry): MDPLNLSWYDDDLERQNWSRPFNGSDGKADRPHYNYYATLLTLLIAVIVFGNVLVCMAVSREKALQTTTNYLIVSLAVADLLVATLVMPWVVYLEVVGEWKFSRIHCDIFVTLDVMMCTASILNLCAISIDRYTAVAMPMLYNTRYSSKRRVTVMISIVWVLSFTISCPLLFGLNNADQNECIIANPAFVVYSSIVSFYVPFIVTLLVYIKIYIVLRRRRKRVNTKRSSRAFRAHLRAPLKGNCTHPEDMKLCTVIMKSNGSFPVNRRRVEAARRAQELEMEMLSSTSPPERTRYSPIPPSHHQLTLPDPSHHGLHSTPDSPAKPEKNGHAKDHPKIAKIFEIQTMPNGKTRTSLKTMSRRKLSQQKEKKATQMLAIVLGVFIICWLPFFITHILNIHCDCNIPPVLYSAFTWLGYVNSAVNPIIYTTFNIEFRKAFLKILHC

For O=C(CCCN1C2CCC1CC(c1ccccc1)C2)c1ccc(F)cc1 (stereo not drawn), the Ratio [1] was 0.7, the pKi [2] was 7.29 and the pKi (D(4) dopamine receptor) was 6.75.

Work on O=C(CCCN1CCC(c2ccc(Cl)cc2)CC1)c1ccc(F)cc1 yielded a pKi [2] of 7.34.

O=C(CCCN1C2CCC1CC(O)(c1ccccc1)C2)c1ccc(F)cc1 (stereo not drawn) gave a pKi [2] of 8.49 and a pKi (D(4) dopamine receptor) of 7.72.

Work on O=C(CCCN1C2CCC1CC(c1ccc(Cl)cc1)C2)c1ccc(F)cc1 (stereo not drawn) yielded a Ratio [1] of 0.6, a pKi [2] of 6.65 and a pKi (D(4) dopamine receptor) of 6.46. The pKi (D(2) dopamine receptor) was 6.72.

Work on O=C(CCCN1C2CCC1CC(O)(c1ccc(Cl)cc1)C2)c1ccc(F)cc1 (stereo not drawn) yielded a Ratio [1] of 0.03.

With O=C(CN1C2CCC1CC(O)(c1ccc(Cl)cc1)C2)c1ccc(F)cc1 (stereo not drawn) the pKi [2] was less than 5.00.

With O=C(CCCN1CCN(c2ccc(Cl)cc2)CC1)c1ccc(F)cc1 the pKi (D(4) dopamine receptor) was 7.76.
